The target in one assay is T1, KCC4 (Homo sapiens, UniProt Q9Y666).
T1 construct: expressed in transfected cells; host or cells: HEK-293
T1 sequence (Q9Y666 1-1083): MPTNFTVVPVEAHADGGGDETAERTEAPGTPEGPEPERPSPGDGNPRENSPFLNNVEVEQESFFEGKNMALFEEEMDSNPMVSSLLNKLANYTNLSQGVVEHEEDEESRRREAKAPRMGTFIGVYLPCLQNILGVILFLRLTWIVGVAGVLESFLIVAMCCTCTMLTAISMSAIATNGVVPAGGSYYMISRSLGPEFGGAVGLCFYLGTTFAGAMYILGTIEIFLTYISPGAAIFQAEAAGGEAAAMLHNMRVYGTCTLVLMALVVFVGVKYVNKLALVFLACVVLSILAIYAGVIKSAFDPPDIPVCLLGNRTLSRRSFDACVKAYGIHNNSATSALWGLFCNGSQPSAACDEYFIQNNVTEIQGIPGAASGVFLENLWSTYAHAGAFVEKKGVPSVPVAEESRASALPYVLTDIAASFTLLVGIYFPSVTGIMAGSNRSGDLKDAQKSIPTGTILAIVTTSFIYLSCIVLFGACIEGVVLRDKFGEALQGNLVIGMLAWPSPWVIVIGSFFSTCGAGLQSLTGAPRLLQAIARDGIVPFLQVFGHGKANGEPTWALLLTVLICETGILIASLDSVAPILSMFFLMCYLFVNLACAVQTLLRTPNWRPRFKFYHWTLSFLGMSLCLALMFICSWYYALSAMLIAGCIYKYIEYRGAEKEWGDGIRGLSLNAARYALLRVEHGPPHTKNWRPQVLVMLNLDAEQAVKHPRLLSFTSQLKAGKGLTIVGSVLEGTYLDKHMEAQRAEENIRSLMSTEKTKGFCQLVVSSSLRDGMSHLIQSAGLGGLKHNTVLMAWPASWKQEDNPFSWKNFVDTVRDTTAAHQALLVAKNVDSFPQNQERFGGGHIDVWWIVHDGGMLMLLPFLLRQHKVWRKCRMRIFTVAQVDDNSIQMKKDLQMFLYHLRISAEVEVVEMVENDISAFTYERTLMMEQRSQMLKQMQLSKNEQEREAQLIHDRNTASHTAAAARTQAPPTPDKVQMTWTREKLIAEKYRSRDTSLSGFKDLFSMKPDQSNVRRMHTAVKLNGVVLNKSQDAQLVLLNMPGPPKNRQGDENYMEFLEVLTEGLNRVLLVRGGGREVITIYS
The assay is described as follows: Tl+ flux assay, HEK-293 cells expressing KCC4. Type of assay: cell-based. The settings on record: read-out: concentration at which effects on KCC4 were seen (EC50, FIG. 1G). How it is done:
(§1) FLIPR TI Flux assay. HEK-293 cells were washed with HBSS, and then incubated with loading buffer containing TI sensitive fluorescent dye (https://www.moleculardevices.com), 20 μM bumetanide 20 μM ouabain and 2.5 mM probenecid for 1 h at room temperature (RT) under control conditions or with drugs in the dark using a FlexStation 3 microplate reader (Molecular Devices) and imaged […] for 30 min. Stimulus buffer was added containing 5 mM K^+/0.5 mM Tl^+ and cells were imaged every 1.5 over a 190 second time course The initial rate Tl^+ uptake (Relative Fluorescence Units (RFU) per second) was determined following addition of the stimulus buffer as outlined previously (Conway et al., 2017, supra) (Lee et al., 2022, supra).
(§2) Several studies have shown that the activity and plasma membrane accumulation of KCC2 is potentiated via phosphorylation of S940, a process mediated by the activity of protein kinase C and protein phosphatase 1 (Lee et al, 2011, supra; Lee et al., J Biol Chem 282, 29777-29784 (2007); Moore et al., Proc. Natl. Acad. Sci. U.S.A 115, 10166-10171 (2018); Moore et al., Trends Neurosci. 40, 555-571 (2017); Silayeva et al., Proc. Natl. Acad. Sci. U.S.A. 112, 3523-3528 (2015)). […] Compared to KCC2, effects on KCC3, KCC4, and NKCC1 were only seen at concentrations more than 35-fold that of KCC2 (>100 μM) (FIG. 1G).

In the next assay the target is T2, NKCC1 (Homo sapiens, UniProt P55011).
T2 construct: expressed in transfected cells; host or cells: HEK-293
T2 sequence (P55011 1-1212): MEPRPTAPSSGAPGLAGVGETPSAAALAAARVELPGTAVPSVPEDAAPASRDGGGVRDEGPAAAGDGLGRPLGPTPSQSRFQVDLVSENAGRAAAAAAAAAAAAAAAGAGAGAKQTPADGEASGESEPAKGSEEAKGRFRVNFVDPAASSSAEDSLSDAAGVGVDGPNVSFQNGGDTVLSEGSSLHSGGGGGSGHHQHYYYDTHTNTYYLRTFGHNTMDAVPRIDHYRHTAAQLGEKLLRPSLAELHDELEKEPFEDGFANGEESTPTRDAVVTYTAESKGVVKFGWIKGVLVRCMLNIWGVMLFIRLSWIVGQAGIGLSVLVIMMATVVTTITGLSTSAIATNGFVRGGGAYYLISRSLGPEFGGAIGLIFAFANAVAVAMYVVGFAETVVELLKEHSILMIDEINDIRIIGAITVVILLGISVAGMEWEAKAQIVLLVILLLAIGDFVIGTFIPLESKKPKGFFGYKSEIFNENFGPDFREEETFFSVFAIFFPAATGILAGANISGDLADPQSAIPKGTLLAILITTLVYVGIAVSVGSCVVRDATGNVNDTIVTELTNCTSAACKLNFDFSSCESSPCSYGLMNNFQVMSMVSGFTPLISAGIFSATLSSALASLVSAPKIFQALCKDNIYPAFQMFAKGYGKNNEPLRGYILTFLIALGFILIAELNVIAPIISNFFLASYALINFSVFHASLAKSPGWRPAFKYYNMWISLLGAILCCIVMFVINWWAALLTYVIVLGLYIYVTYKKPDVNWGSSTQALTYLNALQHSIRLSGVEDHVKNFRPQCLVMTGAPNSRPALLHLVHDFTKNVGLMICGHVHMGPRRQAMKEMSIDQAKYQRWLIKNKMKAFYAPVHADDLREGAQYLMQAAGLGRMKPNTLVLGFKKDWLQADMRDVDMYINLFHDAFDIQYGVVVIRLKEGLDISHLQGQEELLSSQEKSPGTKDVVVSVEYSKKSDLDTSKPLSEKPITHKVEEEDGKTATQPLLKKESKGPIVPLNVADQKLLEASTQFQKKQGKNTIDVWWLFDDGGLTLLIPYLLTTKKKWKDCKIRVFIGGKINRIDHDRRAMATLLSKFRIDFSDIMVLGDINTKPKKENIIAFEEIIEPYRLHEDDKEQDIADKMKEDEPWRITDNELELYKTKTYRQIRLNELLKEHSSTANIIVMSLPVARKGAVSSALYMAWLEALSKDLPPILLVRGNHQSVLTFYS
The assay is described as follows: Tl+ flux assay, HEK-293 cells expressing NKCC1. The format is cell-based. The settings on record: read-out: concentration at which effects on NKCC1 were seen (EC50, FIG. 1G). As to the method:
as §1, §2

Turning to `C[C@@H]1CN(c2nc3c(c(Nc4ccc(C5CCCCC5)cc4)n2)COC3)CCO1` [Compound A, (R)—N-(4-cyclohexylphenyl)-2-(2-methylmorpholino)-5,7-dihydrofuro[3,4-d]pyrimidin-4-amine], the EC50 at KCC4 and on NKCC1 was over 100 µM in each case.

These data come from patent US20250281499A1, “FUSED AMINO PYRIMIDINE COMPOUNDS FOR TREATMENT OF NEUROPATHIC AND NEURO-INFLAMMATORY PAIN” (Ovid Therapeutics Inc., priority 2024, published 2025).
